The source of these data is ChEMBL document CHEMBL1201862, “PubChem BioAssay data set” (2004).

Structures are written as SMILES. Active and inactive are the calls of the source.

The target in one experiment is T1, Cytochrome P450 1A2 (Homo sapiens, UniProt P05177).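 Further: PubChem cytochrome P450 panel assay, CYP1A2 panel member.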
T1 sequence (P05177 whole entry): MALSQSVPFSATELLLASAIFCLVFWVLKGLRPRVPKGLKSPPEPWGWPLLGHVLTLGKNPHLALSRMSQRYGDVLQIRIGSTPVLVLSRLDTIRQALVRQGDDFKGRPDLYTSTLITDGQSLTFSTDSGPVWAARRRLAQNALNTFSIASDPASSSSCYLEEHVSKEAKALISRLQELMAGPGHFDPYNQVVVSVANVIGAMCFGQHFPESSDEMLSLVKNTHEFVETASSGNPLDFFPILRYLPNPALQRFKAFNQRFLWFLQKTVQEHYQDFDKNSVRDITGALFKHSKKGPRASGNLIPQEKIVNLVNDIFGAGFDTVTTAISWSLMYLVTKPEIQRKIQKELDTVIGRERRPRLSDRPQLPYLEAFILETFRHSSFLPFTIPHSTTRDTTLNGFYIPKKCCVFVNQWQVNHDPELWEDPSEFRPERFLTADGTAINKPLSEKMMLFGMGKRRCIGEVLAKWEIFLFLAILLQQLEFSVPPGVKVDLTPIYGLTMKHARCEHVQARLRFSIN

A short description of experiment [1]: inhibitors of HIV Env-driven cell fusion, dose response, cherry-pick (AID 652057). It is filed as functional, cell-based.
Experiment [2] in a line: microbe, parasite or virus in culture. In kind it is functional. The conditions noted are these: Mycobacterium tuberculosis.
Another experiment concerns SN12K1. Nature of the experiment: cells. It is filed as functional.
The next experiment has as its system P388. Nature of the experiment: cells. It is filed as functional.
For a further experiment, the system named is P388/ADR. Nature of the experiment: cells. It is filed as functional.
Experiment [3] can be described thus: inhibitors of clade B AD8 Env fusion, dose response, cell-based, cherry-pick (AID 652062).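 Further: luciferase signal from cell-cell fusion driven by HIV-1 clade B AD8 Env; potency is for inhibitors of fusion seen as a drop in luminescence.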 It is filed as functional.
Experiment [4] in a line: HEp-2 cell cytotoxicity, dose response, cytotoxicity control for RSV inhibitor project, HTS (AID 2410). The conditions noted are these: human respiratory syncytial virus. In kind it is functional.
The target in another experiment is T2, Streptokinase A (Streptococcus pyogenes serotype M1, UniProt P10520).
T2 sequence (P10520 whole entry): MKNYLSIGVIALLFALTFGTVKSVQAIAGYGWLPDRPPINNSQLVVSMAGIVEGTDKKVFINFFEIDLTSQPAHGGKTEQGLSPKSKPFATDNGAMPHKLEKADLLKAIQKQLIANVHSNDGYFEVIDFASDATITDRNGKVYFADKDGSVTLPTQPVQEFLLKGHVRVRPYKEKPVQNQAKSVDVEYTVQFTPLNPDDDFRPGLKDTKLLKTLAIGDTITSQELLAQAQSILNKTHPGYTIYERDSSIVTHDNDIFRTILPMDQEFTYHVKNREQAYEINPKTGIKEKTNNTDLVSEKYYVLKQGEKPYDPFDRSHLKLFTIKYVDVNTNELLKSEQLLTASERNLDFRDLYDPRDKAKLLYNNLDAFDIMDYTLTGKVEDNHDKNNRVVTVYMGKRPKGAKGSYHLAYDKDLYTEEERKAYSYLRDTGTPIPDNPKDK
Nature of the experiment: S. pyogenes streptokinase expression inhibitors, potency, dose response, plasminogen activation absorbance, OD405 (AID 1914).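 Further: secreted streptokinase activity via plasminogen activation per viability signal from cell pellet.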 It is filed as functional, Streptococcus pyogenes M1 GAS.

In experiment [5] the test system is Streptococcus sp. 'group A'. Nature of the experiment: growth inhibition of control SK(-) GAS strain, dose response, counter-screen for streptokinase expression inhibitor project, luminescence, kanamycin, BacTiterGlo, confirmation (AID 1900). It is filed as functional, organism-based. Background: Counterscreens check selectivity or assay interference.
The subject of another experiment is Streptococcus. Nature of the experiment: Group A Streptococcus viability loss, dose response, counter-screen for streptokinase expression inhibitor project, luminescence, BacTiterGlo (AID 1915).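 Further: potency for reduction of bacterial viability or growth.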 It is filed as functional, organism-based.

Turning to `Clc1ccc2c(c1)C1=C(C(c3ccncc3)O2)C(c2ccc(Br)cc2)n2ncnc2N1` (stereo not drawn), the AC50 (in general, the concentration at which the activity in the assay is half-maximal) on Cytochrome P450 1A2 is 25.1 µM (inconclusive); in experiment [1], 11.2 µM (active).

On to `COc1ccc(-n2cc(CNCCc3cscn3)c(-c3ccccc3Cl)n2)cc1`, for which, in experiment [2], the CC50 is > 40 µM (active).

With `O=C1C=C2SC3C[C@@]24CC1[N+]1=c2c4c(c(O)c4c2=C(C=N4)CC1)N3`, the GI50 (as a rule, the concentration at which growth is held to half of that of the control) in the experiment with SN12K1 (Homo sapiens, SN12K1) was 1.94 µM (inactive); in the experiment on P388 (Mus musculus, P388) it was 1.83 µM (inactive); in the experiment on P388/ADR (Mus musculus, P388/ADR), 6.35 µM (inactive).

Consider `Nc1[nH]nc(C2CC2)c1N=Nc1ccc(Cl)cc1`, for which the CC50 in [2] was > 40 µM (active).

In the case of `CCOC(=O)c1c(CN2CCN(Cc3ccccc3)CC2)n(C)c2cc(Br)c(OC)cc12`, the CC50 in experiment [2] is > 40 µM (active).

For `CSc1ccccc1OCc1cc(C(=O)N2CCC(Oc3cccnc3)CC2)no1`, the CC50 in experiment [2] was > 40 µM (active).

For `C[C@H]1CN([C@@H](C)CO)C(=O)c2ccccc2-c2ccccc2CO[C@@H]1CN(C)C(=O)Nc1cccc(C(F)(F)F)c1`, the AC50 in experiment [3] is 19 µM (active); in [1] it was < 0.26 µM (active).

For `COc1ccc(CCNC(=O)c2cc3sc(Cl)cc3n2C)cc1OC`, the CC50 in [4] was 27.5 µM (active).

Regarding `CCOC(=O)c1c(N)sc(-c2ccccc2)c1C`, the CC50 in experiment [4] was 28.5 µM (active).

As for `NC1=NC(=O)/C(=C2\CCNC(=O)c3[nH]c(Br)cc32)N1` [HYMENIALDISINE], the GI50 in the experiment with SN12K1 (Homo sapiens, SN12K1) is 12.3 µM (inactive); in the experiment on P388 (Mus musculus, P388), 3.97 µM (inactive); with P388/ADR (Mus musculus, P388/ADR) it was 7.28 µM (inactive).

As for `CC12CCC(CC1)C(C)(C)O2` [EUCALYPTOL], the half-maximal effective concentration (EC50) (at Streptokinase A; in experiment [5]; in the experiment on Streptococcus) was > 150 µM (not active) each time. Besides, the GI50 in the experiment on SN12K1 (Homo sapiens, SN12K1) is 21.9 µM (inactive); with P388 (Mus musculus, P388) it was 9.1 µM (inactive); in the experiment with P388/ADR (Mus musculus, P388/ADR), 8.17 µM (inactive).

For `C=CC1(C)CC(=O)C2(O)C(C)(O1)C(OC(C)=O)C(O)C1C(C)(C)CCC(O)C12C` (stereo not drawn), the GI50 with SN12K1 (Homo sapiens, SN12K1) was 65.3 µM (inactive); in the experiment on P388 (Mus musculus, P388), 56.4 µM (inactive); in the experiment on P388/ADR (Mus musculus, P388/ADR) it was 43.9 µM (inactive).

As to `O=C(O)CCC(NC(=O)c1ccc(Nc2nc3cc(C(F)(F)F)ccc3nc2-c2ccccc2)cc1)C(=O)O` (stereo not drawn), the GI50 was 48.2 µM (inactive) in the experiment on SN12K1 (Homo sapiens, SN12K1); 26.5 µM (inactive) with P388 (Mus musculus, P388); 38.5 µM (inactive) in the experiment on P388/ADR (Mus musculus, P388/ADR).

For the compound `COc1cc2c(cc1OC)C(C(c1ccccc1)c1ccccc1)N(C)CC2` (stereo not drawn), the GI50 in the experiment with SN12K1 (Homo sapiens, SN12K1) is 32.6 µM (inactive); with P388 (Mus musculus, P388) it was 24.5 µM (inactive); in the experiment on P388/ADR (Mus musculus, P388/ADR), 41.6 µM (inactive).

On to `CCCCNC(=O)c1cccc(S(=O)(=O)N2CC3(C)CC2CC(C)(C)C3)c1` (stereo not drawn), for which the CC50 in experiment [4] was 26.5 µM (active).

As for `CCOC(=O)c1c(C)c2c(n1C)CCc1c[nH]nc1-2`, the GI50 with SN12K1 (Homo sapiens, SN12K1) was > 100 µM (inactive); in the experiment with P388 (Mus musculus, P388), > 100 µM (inactive); in the experiment with P388/ADR (Mus musculus, P388/ADR), > 31.6 µM (inactive).

Consider `Cc1ncc2c(n1)-c1cc(F)ccc1SC2`, for which the CC50 in [4] was 40.5 µM (active).

Regarding `COc1ccc(N2CCN(c3ccnc4cc(Cl)ccc34)CC2)cc1`, the CC50 in experiment [2] is > 40 µM (active).

For the compound `COC(C(=O)C(O)C(C)O)C1Cc2cc3cc(OC4CC(OC(C)=O)C(OC5CC(O)C(OC)C(C)O5)C(C)O4)cc(O)c3c(O)c2C(=O)C1OC1CC(OC2CC(OC3CC(C)(O)C(OC(=O)C(C)C)C(C)O3)C(O)C(C)O2)C(O)C(C)O1` (stereo not drawn), the GI50 in the experiment on SN12K1 is 0.00895 µM (active); with SN12K1 (Homo sapiens, SN12K1) it was 0.01 µM (active); in the experiment with P388 it was 0.0075 µM (active); in the experiment with P388 (Mus musculus, P388), 0.0123 µM (active); with P388/ADR, 5.12 µM (inactive); in the experiment on P388/ADR (Mus musculus, P388/ADR) it was 5.98 µM (inactive).
